Test results taken from patent publication US20070203121A1, “SUBSTITUTED INDOLE COMPOUNDS, THEIR PREPARATION AND USE IN MEDICAMENTS” (LABORATORIOS DEL DR. ESTEVE S.A, priority 2004, published 2007).

What follows are molecules tested against T1, 5HT6-human recombinant receptor (Homo sapiens, UniProt P50406) (assay: Binding to Serotonin Receptor 5-HT6 ([3H]-LSD displacement)). Conditions: membranes of HEK-293 cells expressing the receptor; radioligand [3H]-LSD 2.7 nM; 60 minutes at 37° C.; triplicate.
T1 construct: purchased Receptor Biology; host or cells: HEK-293 cells (membranes)
T1 sequence (P50406 whole entry): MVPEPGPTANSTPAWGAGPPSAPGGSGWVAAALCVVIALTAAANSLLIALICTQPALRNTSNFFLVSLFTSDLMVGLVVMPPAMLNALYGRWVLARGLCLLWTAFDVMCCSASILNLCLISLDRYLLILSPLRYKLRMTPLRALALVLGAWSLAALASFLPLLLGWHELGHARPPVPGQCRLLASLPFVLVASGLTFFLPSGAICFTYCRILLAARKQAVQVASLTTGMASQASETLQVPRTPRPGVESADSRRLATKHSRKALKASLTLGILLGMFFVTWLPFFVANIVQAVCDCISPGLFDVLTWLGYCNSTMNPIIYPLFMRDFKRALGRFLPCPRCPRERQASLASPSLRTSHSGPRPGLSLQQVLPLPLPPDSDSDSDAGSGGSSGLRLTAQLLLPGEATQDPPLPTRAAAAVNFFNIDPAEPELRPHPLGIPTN
Procedure: I) Binding to Serotonin Receptor 5-HT6
Cell membranes of HEK-293 cells expressing the 5HT6-human recombinant receptor were supplied by Receptor Biology. In said membranes the receptor concentration is 2.18 pmol/mg protein and the protein concentration is 9.17 mg/ml. The experimental protocol follows the method of B. L. Roth et al. [B. L. Roth, S. C. Craigo, M. S. Choudhary, A. Uluer, F. J. Monsma, Y. Shen, H. Y. Meltzer, D. R. Sibley: Binding of Typical and Atypical Antipsychotic Agents to 5-Hydroxytryptamine-6 and Hydroxytryptamine-7 Receptors. The Journal of Pharmacology and Experimental Therapeutics, 1994, 268, 1403] with the following slight changes. The respective part of the literature description is hereby incorporated by reference and forms part of the disclosure.
The commercial membrane is diluted (1:40 dilution) with the binding buffer: 50 mM Tris-HCl, 10 mM MgCl2, 0.5 mM EDTA (pH 7.4). The radioligand used is [^3H]-LSD at a concentration of 2.7 nM with a final volume of 200 μl. Incubation is initiated by adding 100 μl of membrane suspension, (≈22.9 μg membrane protein), and is prolonged for 60 minutes at a temperature of 37° C. The incubation is ended by fast filtration in a Brandel Cell Harvester through fiber glass filters made by Schleicher & Schuell GF 3362 pretreated with a solution of polyethylenimine at 0.5%. The filters are washed three times with three milliliters of buffer Tris-HCl 50 mM pH 7.4. The filters are transferred to flasks and 5 ml of Ecoscint H liquid scintillation cocktail are added to each flask. The flasks are allowed to reach equilibrium for several hours before counting with a Wallac Winspectral 1414 scintillation counter. Non-specific binding is determined in the presence of 100 μM of serotonin. Tests were made in triplicate. The inhibition constants (Ki, nM) were calculated by non-linear regression analysis using the program EBDA/LIGAND described in Munson and Rodbard, Analytical Biochemistry, 1980, 107, 220, the respective part of which is hereby incorporated by reference and forms part of the disclosure.
The binding of the substituted indole compounds to the 5-HT6 receptor was determined as described above.
Work on `CCN(CC)C(=O)C(=O)c1c[nH]c2ccc(NS(=O)(=O)c3c(Cl)nc4sccn34)cc12` [Example 9, 2-[5-(6-Chloro-imidazo[2,1-b]thiazole-5-sulfonylamino)-1H-indol-3-yl]-N,N-diethyl-2-oxo-acetamide] yielded a Ki of 224 nM. `CN(C)C(=O)C(=O)c1c[nH]c2ccc(NS(=O)(=O)c3c(Cl)nc4sccn34)cc12` [Example 10, 2-[5-(6-Chloro-imidazo[2,1-b]thiazole-5-sulfonylamino)-1H-indol-3-yl]-N,N-dimethyl-2-oxo-acetamide] showed a Ki of 18.4 nM. Molecule `CN(C)C(=O)C(=O)c1c[nH]c2cccc(NS(=O)(=O)c3c(Cl)nc4sccn34)c12` [Example 13, 2-[4-(6-Chloro-imidazo[2,1-b]thiazole-5-sulfonylamino)-1H-indol-3-yl]-N,N-dimethyl-2-oxo-acetamide] has a Ki of 161 nM. Molecule `CN(C)C(=O)C(=O)c1c[nH]c2ccc(NS(=O)(=O)c3ccc(Oc4ccccc4)cc3)cc12` [Example 20, N,N-Dimethyl-2-[5-[(4-phenoxy-phenyl)-1-sulfonylamino]-1H-indol-3-yl]-2-oxo-acetamide] has a Ki of 113 nM. For `Cc1[nH]c2ccc(NS(=O)(=O)c3c(Cl)nc4sccn34)cc2c1C(=O)C(=O)N(C)C` [Example 22, 2-(5-(6-chloroimidazo[2,1-b]thiazole-5-sulfonamido)-2-methyl-1H-indol-3-yl)-N,N-dimethyl-2-oxoacetamide], the Ki was 52.8 nM.
